This is an account of results in ChEMBL document CHEMBL3045373, “New thiazolidinyl analogs containing pyridine ring: synthesis, biological evaluation and QSAR studies” (2013).

In general, inhibition in vivo refers to the change of the read-out against control, counted positive when it falls.

The test system of one test is Mus musculus. The test is described as follows: Analgesic activity in Mus musculus Swiss albino (mouse) assessed as inhibition of acetic acid-induced writhing at 50 mg/kg, po administered 30 min prior to acetic acid challenge measured at 5 to 15 min relative to untreated control. The test is classed as functional.
Another test relates to Rattus norvegicus. The test is described as follows: Anti-inflammatory activity against Rattus norvegicus Wistar (rat) assessed as inhibition of carrageenan-induced paw edema at 10 mg/kg, po administered 30 min prior to carrageenan challenge measured at 120 min by plethysmometeric analysis relative to untreated control. The format is functional.

On to `Cc1ccc(/N=C2/NC(=O)/C(=C/c3ccccn3)S2)cc1`, for which the inhibition in vivo at 50 mg/kg in the test with Mus musculus is 43.2%. In the test on Rattus norvegicus, the inhibition in vivo at 10 mg/kg is 43.8%.
Consider `O=C1N/C(=N/c2ccc(Br)cc2)S/C1=C\c1ccccn1`, for which, in the test on Mus musculus, the inhibition in vivo at 50 mg/kg was 28.7%. Further, the inhibition in vivo at 10 mg/kg in the test on Rattus norvegicus is 30.4%.
With `O=C1N/C(=N/c2ccccc2)S/C1=C\c1ccccn1`, in the test on Mus musculus, the inhibition in vivo at 50 mg/kg came out at 29.2%. Further, in the test with Rattus norvegicus, the inhibition in vivo at 10 mg/kg is 26.2%.
`O=C1N/C(=N/c2ccc([N+](=O)[O-])cc2Cl)S/C1=C\c1ccccn1`: the inhibition in vivo at 50 mg/kg in the test on Mus musculus worked out at 37.4%. Moreover, the inhibition in vivo at 10 mg/kg with Rattus norvegicus stood at 39.7%.
On to `O=C1N/C(=N/c2ccc(Cl)cc2)S/C1=C\c1ccccn1`, for which, in the test with Mus musculus, the inhibition in vivo at 50 mg/kg was found to be 41.7%. The inhibition in vivo at 10 mg/kg in the test on Rattus norvegicus came out at 34.8%.
For `O=C1N/C(=N/c2ccc(F)cc2)S/C1=C\c1ccccn1`, in that order: 43.2% and 34.7%.
In the case of `O=C1N/C(=N\Nc2ccccc2)S/C1=C\c1ccccn1`, in the test with Mus musculus, the inhibition in vivo at 50 mg/kg stood at 46.2%. In addition, the inhibition in vivo at 10 mg/kg in the test on Rattus norvegicus amounted to 39.7%.
For `Cc1ccccc1/N=C1/NC(=O)/C(=C/c2ccccn2)S1`, in the test with Mus musculus, the inhibition in vivo at 50 mg/kg amounted to 43.6%. In the test with Rattus norvegicus, the inhibition in vivo at 10 mg/kg was found to be 30.4%.
The matching figures for `Cc1cccc(/N=C2/NC(=O)/C(=C/c3ccccn3)S2)c1`: 52.3% and 39.7%.
Turning to `O=C1N/C(=N\Nc2ccc([N+](=O)[O-])cc2[N+](=O)[O-])S/C1=C\c1ccccn1`, in the test with Mus musculus, the inhibition in vivo at 50 mg/kg came out at 68.7%. Also, the inhibition in vivo at 10 mg/kg in the test on Rattus norvegicus was found to be 56.5%.
The matching figures for `O=C1N/C(=N/c2ccccc2Cl)S/C1=C\c1ccccn1`: 36.2% and 26.2%.
Regarding `O=C(O)Cc1ccccc1Nc1c(Cl)cccc1Cl` [DICLOFENAC SODIUM], the inhibition in vivo at 50 mg/kg with Mus musculus was 60.2%. Moreover, in the test on Rattus norvegicus, the inhibition in vivo at 10 mg/kg came out at 43.5%.
Regarding `Cc1cccc(C)c1/N=C1/NC(=O)/C(=C/c2ccccn2)S1`, the inhibition in vivo at 50 mg/kg in the test with Mus musculus was 51.5%. Besides, the inhibition in vivo at 10 mg/kg in the test on Rattus norvegicus worked out at 39.7%.
With `COc1ccc(/N=C2\NC(=O)/C(=C/c3ccccn3)S2)cc1`, the inhibition in vivo at 50 mg/kg in the test on Mus musculus was found to be 42.4%. In addition, the inhibition in vivo at 10 mg/kg in the test on Rattus norvegicus came out at 39.1%.
With `O=C1N/C(=N\c2ccccc2[N+](=O)[O-])S/C1=C/c1ccccn1`, in the test on Mus musculus, the inhibition in vivo at 50 mg/kg was 36.7%. Besides, in the test with Rattus norvegicus, the inhibition in vivo at 10 mg/kg was 34.8%.
In the case of `O=C1N/C(=N/c2cccc([N+](=O)[O-])c2)S/C1=C\c1ccccn1`, the inhibition in vivo at 50 mg/kg in the test with Mus musculus is 62.3%. In addition, the inhibition in vivo at 10 mg/kg in the test on Rattus norvegicus worked out at 43.5%.
